Reference: article PMC7402526, “An in vitro quantitative systems pharmacology approach for deconvolving mechanisms of drug-induced, multilineage cytopenias” (PLoS Computational Biology, 2020)

Experiments:
[1] = tested on: monocyte progenitors (monocyte prog); experiment: MLTA, MonoP: concentration-response and QSP model fit; type: cell-based, human
In short: (§1)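 Parameters come from fitting an Emax-based QSP model, with L1 regularization and Emax ranging 0–2, to vehicle-normalized, bead-corrected flow cytometry counts. Counts came from human bone marrow CD34+ cells treated from day 0 through a 6-day multi-lineage cytokine culture in SFEM II, using 2–7 donors per drug.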

[2] = tested on: total viable cells (totalViableCells); experiment: MLTA, total live cells concentration-response; type: cell-based; details: Homo sapiens, 144 h, 6 days, normalized to vehicle control, read-out: total_live normalized cell count
In short: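 Freeze-thawed primary human bone marrow CD34+ cells in SFEM II with cytokine cocktail, drug added day 0, 6 days at 37°C, 5% CO2. Live/dead counts by 17-parameter flow cytometry with DAPI exclusion, bead-normalized, volume-corrected to cells/mL. Normalized per donor to mean of six vehicle wells; 2–7 donors pooled.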

[3] = tested on: granulocyte progenitor (Gran-lin prog); experiment: MLTA, GranP: concentration-response and QSP model fit; type: cell-based, human; details: Homo sapiens, 144 h
In short: as §1

[4] = tested on: early erythroid cells (Eryth I); experiment: MLTA, ErythI: concentration-response and QSP model fit; type: cell-based, human
In short: as §1

[5] = tested on: late erythroid cells (Eryth II); experiment: MLTA, ErythII: concentration-response and QSP model fit; type: cell-based, human; details: Homo sapiens, 144 h
In short: as §1

[6] = tested on: neutrophils (neutrophil-lin); experiment: MLTA, Neut: concentration-response and QSP model fit; type: cell-based, human; details: Homo sapiens, Neutrophil, 144 h
In short: as §1

[7] = tested on: human bone marrow-derived CD34+ cells differentiated into multiple hematopoietic lineages; experiment: MLTA, overall effects across hematopoietic lineages; type: cell-based; details: QSP model fit; EmaxT > 1.0 = cell-killing
Experimental: A custom optimized cytokine cocktail was developed using commercially available cytokines (Peprotech, New Jersey) to facilitate simultaneous multi-lineage differentiation and self-renewal of freeze-thawed primary human bone marrow-derived CD34+ cells in SFEM II media (cells and media from StemCell Technologies, Vancouver). Cultures were carried out in ultra-low attachment 96-well plates (Corning, New York) with test article added on day 0 and cultured at 37°C, 85% relative humidity, and 5% CO2 for six days before interrogating drug impact via 17-parameter flow cytometry.
The flow cytometry panel used to define hematopoietic subsets was composed of CD34-PECy7, CD90-PECY5, CD38-AF488, CD371-PE, CD45Ra-BV421, CD14-BV605, CD42b-AF647, CD10-PEDazzle594, CD235a-PerCPCy5.5 (BioLegend, California), CD15-BUV395, CD41a-APCH7, CD71-BV786 (BD Biosciences, California), and DAPI for dead cell exclusion (ThermoFisher, California). In short, Day 6 cells were harvested, FcR-blocked (FcR binding inhibitor, ThermoFisher), surface-stained, then analyzed in a buffer containing TruCount Control Beads using a BD LSR Fortessa SORP fitted with a high-throughput sampler (BD Biosciences, California). Data was analyzed in Diva 6.0.2 and exported to CSV where after all cell data was transformed to cell per mL then normalized on a per-donor basis to untreated control wells to determine drug impact.
Donor material was collected and cultured as described above. The number of replicate donor samples per drug ranged from 2–7 and varied per drug (S1 Table). Drug treatment was added at time 0 and cells were maintained in culture for 6 days. Concentrations tested for each drug compound are contained in S1 Table. Concentrations were selected to span a range that is clinically useful. Following treatment, cell populations were measured using flow cytometry. We extracted cell counts from flow cytometry data, normalized to bead counts, and corrected for well volume.
Each well was normalized to the average of six vehicle control wells. For drugs that were tested across multiple runs of the assay, vehicle-normalized donor data were pooled, and we used the average of these pooled data for further modeling. Normalized data used as model inputs are included in S1 Table.
We implemented drug effects using an Emax model for the drug’s effect on each cell type. The 13 maximum effect parameters (EmaxT,C) are unitless and can vary between 0 and 2 and where a subscript, C, represents one of the previously described 13 cell types. We adapted a traditional Emax model using the equations below. We interpreted EmaxT values less than or equal to one as anti-proliferative, and EmaxT values greater than one as indicating a cell-killing mechanism in addition to anti-proliferation. The relationships for these effects are included in the model using the following equations. Eq 2 describes the drug anti-proliferative effect in the net proliferation rate for a given cell type. Eq 3 describes the cell-killing EmaxCK effect.

[8] = tested on: MK cells (MK-lin); experiment: MLTA, MK: concentration-response and QSP model fit; type: cell-based, human; details: Homo sapiens, 144 h
In short: as §1

[9] = cell-killing component, max(0, EmaxT-1)
[10] = QSP model fit of 6-day MLTA data

EC50 ([1]; Homo sapiens, Monocyte, 144 h, QSP model fit of 6-day MLTA data, read-out: EC50MonoP): 24.8 nM
EC50 ([4]; Homo sapiens, 144 h, QSP model fit of 6-day MLTA data, read-out: EC50ErythI): 15.4 nM
EC50 ([5]; QSP model fit of 6-day MLTA data, read-out: EC50ErythII): 20.2 nM
EC50 [6, 10]: 25.1 nM
EC50 [8, 10]: 51.7 nM
Compound: CC(=O)O[C@H]1C(=O)[C@@]2(C)[C@H]([C@H](OC(=O)c3ccccc3)[C@]3(O)C[C@H](OC(=O)[C@H](O)[C@@H](NC(=O)c4ccccc4)c4ccccc4)C(C)=C1C3(C)C)[C@]1(OC(C)=O)CO[C@@H]1C[C@@H]2O [paclitaxel]
activity at 0.0002 µM ([1]; Homo sapiens, Monocyte, 144 h, dose 0.2 nM, 6 days, normalized to vehicle control, read-out: MonoPs normalized cell count): 102%
activity at 0.001 µM ([1]; Homo sapiens, Monocyte, 144 h, dose 1 nM, 6 days, normalized to vehicle control, read-out: MonoPs normalized cell count): 112%
activity at 0.005 µM ([1]; Homo sapiens, Monocyte, 144 h, dose 5 nM, 6 days, normalized to vehicle control, read-out: MonoPs normalized cell count): 89%
activity at 0.025 µM ([1]; Homo sapiens, Monocyte, 144 h, dose 25 nM, 6 days, normalized to vehicle control, read-out: MonoPs normalized cell count): 0.562%
activity at 0.1 µM ([1]; Homo sapiens, Monocyte, 144 h, dose 100 nM, 6 days, normalized to vehicle control, read-out: MonoPs normalized cell count): 0.118%
activity at 0.5 µM ([1]; Homo sapiens, Monocyte, 144 h, dose 500 nM, 6 days, normalized to vehicle control, read-out: MonoPs normalized cell count): 0.188%
activity at 2.5 µM ([1]; Homo sapiens, Monocyte, 144 h, dose 2500 nM, 6 days, normalized to vehicle control, read-out: MonoPs normalized cell count): 0.286%
Emax ([1]; Homo sapiens, Monocyte, 144 h, parameter from QSP model fitting, read-out: Emax_drug_MonoP): 156%
EmaxCK,MonoP [1, 9]: 0.556 day⁻¹
viability at 0.0002 µM ([2]; dose 0.2 nM): 102%
viability at 0.001 µM ([2]; dose 1 nM): 110%
viability at 0.005 µM ([2]; dose 5 nM): 75.9%
viability at 0.025 µM ([2]; dose 25 nM): 1.22%
viability at 0.1 µM ([2]; dose 100 nM): 0.201%
viability at 0.5 µM ([2]; dose 500 nM): 0.291%
viability at 2.5 µM ([2]; dose 2500 nM): 0.232%
activity at 0.0002 µM ([3]; dose 0.2 nM, 6 days, normalized to vehicle control, read-out: GranPs normalized cell count): 114%
activity at 0.001 µM ([3]; dose 1 nM, 6 days, normalized to vehicle control, read-out: GranPs normalized cell count): 112%
activity at 0.005 µM ([3]; dose 5 nM, 6 days, normalized to vehicle control, read-out: GranPs normalized cell count): 106%
activity at 0.025 µM ([3]; dose 25 nM, 6 days, normalized to vehicle control, read-out: GranPs normalized cell count): 0.213%
activity at 0.1 µM ([3]; dose 100 nM, 6 days, normalized to vehicle control, read-out: GranPs normalized cell count): 0.0154%
activity at 0.5 µM ([3]; dose 500 nM, 6 days, normalized to vehicle control, read-out: GranPs normalized cell count): 0.032%
activity at 2.5 µM ([3]; dose 2500 nM, 6 days, normalized to vehicle control, read-out: GranPs normalized cell count): 0.0153%
Emax ([3]; parameter from QSP model fitting, read-out: Emax_drug_GranP): 0.04%
activity at 0.0002 µM ([4]; Homo sapiens, 144 h, dose 0.2 nM, 6 days, normalized to vehicle control, read-out: ErythI normalized cell count): 124%
activity at 0.001 µM ([4]; Homo sapiens, 144 h, dose 1 nM, 6 days, normalized to vehicle control, read-out: ErythI normalized cell count): 112%
activity at 0.005 µM ([4]; Homo sapiens, 144 h, dose 5 nM, 6 days, normalized to vehicle control, read-out: ErythI normalized cell count): 83.5%
activity at 0.025 µM ([4]; Homo sapiens, 144 h, dose 25 nM, 6 days, normalized to vehicle control, read-out: ErythI normalized cell count): 2.87%
activity at 0.1 µM ([4]; Homo sapiens, 144 h, dose 100 nM, 6 days, normalized to vehicle control, read-out: ErythI normalized cell count): 0.445%
activity at 0.5 µM ([4]; Homo sapiens, 144 h, dose 500 nM, 6 days, normalized to vehicle control, read-out: ErythI normalized cell count): 0.574%
activity at 2.5 µM ([4]; Homo sapiens, 144 h, dose 2500 nM, 6 days, normalized to vehicle control, read-out: ErythI normalized cell count): 0.379%
Emax ([4]; Homo sapiens, 144 h, parameter from QSP model fitting, read-out: Emax_drug_ErythroidI): 147%
EmaxCK,ErythI [4, 9]: 0.466 day⁻¹
activity at 0.0002 µM ([5]; dose 0.2 nM, 6 days, normalized to vehicle control, read-out: ErythII normalized cell count): 90.9%
activity at 0.001 µM ([5]; dose 1 nM, 6 days, normalized to vehicle control, read-out: ErythII normalized cell count): 107%
activity at 0.005 µM ([5]; dose 5 nM, 6 days, normalized to vehicle control, read-out: ErythII normalized cell count): 56.5%
activity at 0.025 µM ([5]; dose 25 nM, 6 days, normalized to vehicle control, read-out: ErythII normalized cell count): 0.128%
activity at 0.1 µM ([5]; dose 100 nM, 6 days, normalized to vehicle control, read-out: ErythII normalized cell count): 0.0395%
activity at 0.5 µM ([5]; dose 500 nM, 6 days, normalized to vehicle control, read-out: ErythII normalized cell count): 0.0174%
activity at 2.5 µM ([5]; dose 2500 nM, 6 days, normalized to vehicle control, read-out: ErythII normalized cell count): 0.00196%
Emax ([5]; parameter from QSP model fitting, read-out: Emax_drug_ErythroidII): 7.1%
activity at 0.0002 µM ([6]; dose 0.2 nM, 6 days, normalized to vehicle control, read-out: Neut normalized cell count): 88.3%
activity at 0.001 µM ([6]; dose 1 nM, 6 days, normalized to vehicle control, read-out: Neut normalized cell count): 80.1%
activity at 0.005 µM ([6]; dose 5 nM, 6 days, normalized to vehicle control, read-out: Neut normalized cell count): 52.3%
activity at 0.025 µM ([6]; dose 25 nM, 6 days, normalized to vehicle control, read-out: Neut normalized cell count): 0.045%
activity at 0.1 µM ([6]; dose 100 nM, 6 days, normalized to vehicle control, read-out: Neut normalized cell count): 0.0394%
activity at 0.5 µM ([6]; dose 500 nM, 6 days, normalized to vehicle control, read-out: Neut normalized cell count): 0%
activity at 2.5 µM ([6]; dose 2500 nM, 6 days, normalized to vehicle control, read-out: Neut normalized cell count): 0%
Emax ([6]; parameter from QSP model fitting, read-out: Emax_drug_Neut): 21.4%
EmaxT effects across cell types (overall statement) [7]: > 1.0
activity at 0.0002 µM ([8]; dose 0.2 nM, 6 days, normalized to vehicle control, read-out: MK normalized cell count): 108%
activity at 0.001 µM ([8]; dose 1 nM, 6 days, normalized to vehicle control, read-out: MK normalized cell count): 110%
activity at 0.005 µM ([8]; dose 5 nM, 6 days, normalized to vehicle control, read-out: MK normalized cell count): 111%
activity at 0.025 µM ([8]; dose 25 nM, 6 days, normalized to vehicle control, read-out: MK normalized cell count): 9.64%
activity at 0.1 µM ([8]; dose 100 nM, 6 days, normalized to vehicle control, read-out: MK normalized cell count): 0.962%
activity at 0.5 µM ([8]; dose 500 nM, 6 days, normalized to vehicle control, read-out: MK normalized cell count): 0.754%
activity at 2.5 µM ([8]; dose 2500 nM, 6 days, normalized to vehicle control, read-out: MK normalized cell count): 0.792%
Emax ([8]; parameter from QSP model fitting, read-out: Emax_drug_MK): 25.9%
